# Patent publication US9607202B2, “Methods of generating trophectoderm and neurectoderm from human embryonic stem cells” (UNIVERSITY OF PITTSBURGH—OF THE COMMONWEALTH SYSTEM OF …, priority 2009, dated 2017)
# Legend:
# Format in all cases: cell-based, human
# [1] = test system: pluripotent hESC, line H7; experiment: TSA or HDAC siRNA on pluripotent hESC in mTeSR: developmental and epigenetic markers (Arrayscan); conditions: TSA 0.5, 1.0 and 2.0 nM for 2 days
# Procedure: In all panels of FIG. 11, pluripotent hESC, line H7, were cultured in mTeSR media were plated in 96 well plates, fixed and immunostained for developmental and epigenetic markers, and the intensity was measured using the Thermo Fisher Arrayscan. 300 cells per well, 3 wells per condition were measured and standard deviations (error bars) and T Tests were evaluated. […] Anti-HDAC3 antibodies confirms that siRNA directed against HDAC3, but not HDAC1, HDAC2, or control knocked down the concentration of HDAC3 (P<0.05, data not background subtracted). […] This protein changes colony texture by producing smooth, homogeneous colonies. […] This marker is selective for high cells with high levels of pluripotency.
# hESCs [2] = experiment: HDAC inhibition with TSA on BMP4-induced hESC differentiation in MIM
# Description: Though not TE-selective, BMP4 supplementation to MIM was the most robust protocol for hESC differentiation to multiple lineages. To test whether or not TSA caused lineage specific inhibition, this protocol was used to assess HDAC inhibition on hESC differentiation to TE, ME or ExE. […] Thus HDAC inhibition delayed BMP4-induced hESC differentiation in the short-term, without altering lineage selection
# 96-well Microplates were scanned using the 5 or 10× objective on the ArrayScan V Automated image analysis was performed using the Compartmental Analysis BioApplication using Hoechst for identification of nuclei and various transcription factor antibodies (Table 2). Nuclear-specific fluorescence intensity was determined from approximately 300 single cells per well from 3-6 independent wells to produce a well-average nuclear intensity for each measurement Mean and standard deviation were calculated from multiple wells. Fold change of the mean intensities were normalized against matched unstimulated external controls, usually the pluripotent condition, to divide out differences due to efficiency of antibody-antigen binding and chromophore quantum yield. […] Select conditions are additionally compared in bar graph format to show standard deviations and T-tests.
# Colony morphology was quantified by statistical multiresolution analysis of image texture (Mangoubi et al., 2007; Sammak et al., 2008). Image texture is a mathematical measure of the size and sharpness of objects in the image, which is illustrated in one dimension by an intensity line profile (FIG. 10). […] Therefore, we employ texture analysis as an integrated measure of colony morphology. Texture was measured using wavelet analysis (Do and Vetterli, 2002), a generalization of Fourier analysis, to decompose colony texture in phase contrast images (4× objective, Nikon TMS microscope), producing a joint probability density function for the wavelet coefficients from various scales. Different culture conditions can be distinguished as belonging to distinct classes. Each class is thus represented by a probability density function, and quantitative comparative features for classifying and statistically distinguishing colony textures are extracted from the density functions. One such feature is the Kullback-Leibler (KL) distance (Do and Vetterli, 2002). […] Specifically the KL distance between a pair of colonies from the same class is shorter than a pair from different classes.
# hESCs [3] = experiment: TSA-mediated inhibition of noggin induction of neurectoderm differentiation
# Procedure: The hESCs were grown and passaged via standard collagenase methods and passaged into two ibidi plastic 8-well slides. All hESCs were plated onto feederless plates with Stempro Media for 24 hours. hESCs were 50% confluent at time of passage and split 1:5.
# All plates were fed with Neural Differentiation Media (1:1 mix of D-MEM/F12 supplemented with 1×N2 and Neurobasal medium supplemented with B27 (all from Gibco/Invitrogen); supplemented with 100 ng/ml mouse recombinant noggin (R & D systems), 50 U/ml penicillin/50 μg/ml streptomycin (Invitrogen) and 2 mML-glutamine (Invitrogen)) starting at day 0 (100 ng/mL noggin in N2B/27 with media changed daily). Six wells in each of two plates was treated with TSA (0-25 nM daily beginning 24 hours s/p plating hESC
# Colonies were stained with HDACI and Nestin. These proteins co-stained in a peri-nuclear filamentous pattern consistent with previous Nestin distribution. Pax6 expression was negative.
# hESC = experiment: TSA toxicity in hESC
# [4] = 2 nM TSA in MIM plus BMP4, 48 hours, relative to BMP4 alone
smiles,measurement,setting,value
"CC(/C=C/C(=O)NO)=C\[C@@H](C)C(=O)c1ccc(N(C)C)cc1 [TSA, trichostatin A]",DNA methylation on 5'cytosine,[1],decreased
same,GTCM2,[1],increased
same,H3K9me3,[1],decreased
same,H3K27me3,[1],decreased
same,HDAC3,[1],significantly reduced
same,Nanog,[1],increased
same,histone acetylation on H3K9,[1],decreased acetylation
same,increase of colony size,[1],2 fold
same,peripheral F-actin,[1],increased
same,Oct4,[1]; dose dependent,increased
same,CDX2 expression,hESCs [2]; [4],decrease
same,GATA6 expression,hESCs [2]; [4],decrease
same,OCT4 level,hESCs [2]; [4],significant OCT4 level increase
same,brachyury expression,hESCs [2]; [4],decrease
same,expression of HDAC3,hESCs [2]; TSA added to MIM with BMP4,significantly reduced
same,methylation of histone H3K9,hESCs [2]; TSA added to MIM with BMP4,significantly reduced
same,BMP4-induced epithelial transformation (colony morphology by texture analysis),"hESCs [2]; TSA in MIM plus BMP4, 48 hours",significantly delayed
same,molar sensitivity in hESC,hESCs [3],1 nM
same,HDAC (HDAC1 expression),hESCs [3]; 1.0 nM TSA,reduces
same,expression of nestin,hESCs [3]; 1.0 nM TSA,reduces
same,methylation of histone H3 on lysine 9,hESCs [3]; 1.0 nM TSA,reduces
same,effect on cell-cell adhesion and cell motility,"hESCs [3]; 5 nM TSA, noggin differentiation media, 48 hrs",reduced cell-cell adhesion and increased cell motility
same,longer-term formation of neurectoderm,hESCs [3]; TSA treatment for 4 or more days,did not inhibit longer-term formation of neurectoderm
same,neurectoderm formation,hESCs [3]; TSA treatment for 2 days at the initiation of differentiation,inhibited neurectoderm formation
same,highest concentration without toxic effects,hESC,1 nM
